Where “and” joins values, the source holds several entries; their conditions need not be identical. Equal values may be shown once.

We go through four molecules from the kinase profiling compilation of Christmann-Franck et al. (2016).

CSNK1G2 (human), sequence (P78368 whole entry, looked up): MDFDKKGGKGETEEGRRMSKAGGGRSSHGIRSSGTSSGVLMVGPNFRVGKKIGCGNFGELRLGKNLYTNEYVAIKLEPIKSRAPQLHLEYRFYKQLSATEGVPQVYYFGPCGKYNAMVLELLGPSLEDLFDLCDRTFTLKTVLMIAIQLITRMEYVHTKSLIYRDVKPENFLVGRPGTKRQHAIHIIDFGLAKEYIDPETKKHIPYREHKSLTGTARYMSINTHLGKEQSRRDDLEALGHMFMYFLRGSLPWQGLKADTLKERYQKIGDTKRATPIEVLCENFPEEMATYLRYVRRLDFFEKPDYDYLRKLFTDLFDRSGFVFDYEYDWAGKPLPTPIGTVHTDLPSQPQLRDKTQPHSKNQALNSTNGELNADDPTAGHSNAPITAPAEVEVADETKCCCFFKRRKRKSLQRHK

In the first test the target is RIPK2 (human) (UniProt O43353). As to the kind of experiment: radiometric filter-binding kinase assay, Kinase HotSpot. The settings on record: compound 0.5 µM; ATP 10 µM.
With `O=C1NC(=O)C(c2cn(CCCO)c3ncccc23)=C1c1cnccn1`, the residual activity – broadly, the signal under treatment as a percentage of the control signal – was determined as 90.9%.

The target in the next test is VRK1 (human) (UniProt Q99986). Described as above. The settings on record: compound 0.5 µM; ATP 10 µM.
VRK1 (human), sequence (Q99986 whole entry, looked up): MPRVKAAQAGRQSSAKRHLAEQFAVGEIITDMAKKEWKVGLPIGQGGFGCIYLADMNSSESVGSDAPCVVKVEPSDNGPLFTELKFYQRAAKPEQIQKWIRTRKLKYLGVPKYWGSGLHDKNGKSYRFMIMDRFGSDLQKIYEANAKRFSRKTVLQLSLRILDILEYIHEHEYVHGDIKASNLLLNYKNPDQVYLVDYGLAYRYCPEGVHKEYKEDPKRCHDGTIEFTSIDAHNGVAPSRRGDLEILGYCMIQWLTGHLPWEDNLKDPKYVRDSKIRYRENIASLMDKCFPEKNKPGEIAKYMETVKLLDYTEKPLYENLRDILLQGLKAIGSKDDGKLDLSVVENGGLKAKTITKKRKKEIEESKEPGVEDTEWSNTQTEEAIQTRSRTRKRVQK
Turning to `CC(=O)O/N=C1\C(=C2\C(=O)Nc3cc(Br)ccc32)Nc2ccccc21`, the residual activity was found to be 80.7%.

Consider `O=C(O)/C=C/c1cc(Br)c(Br)c(Br)c1Br`, for which the residual activity was determined as 89.8%.

Consider `Cc1nc2cc3nc(-c4cccs4)cnc3cc2n1C`, for which the residual activity was determined as 95.6%.

With `O=C1NC(=O)C(c2cn(CCCO)c3ncccc23)=C1c1cnccn1`, the residual activity came out at 86.4%.

The target in a further test is FGFR2 (human) (UniProt P21802). Described as above. The note with it: compound 0.5 µM; ATP 10 µM.
FGFR2 (human), sequence (P21802 whole entry, looked up): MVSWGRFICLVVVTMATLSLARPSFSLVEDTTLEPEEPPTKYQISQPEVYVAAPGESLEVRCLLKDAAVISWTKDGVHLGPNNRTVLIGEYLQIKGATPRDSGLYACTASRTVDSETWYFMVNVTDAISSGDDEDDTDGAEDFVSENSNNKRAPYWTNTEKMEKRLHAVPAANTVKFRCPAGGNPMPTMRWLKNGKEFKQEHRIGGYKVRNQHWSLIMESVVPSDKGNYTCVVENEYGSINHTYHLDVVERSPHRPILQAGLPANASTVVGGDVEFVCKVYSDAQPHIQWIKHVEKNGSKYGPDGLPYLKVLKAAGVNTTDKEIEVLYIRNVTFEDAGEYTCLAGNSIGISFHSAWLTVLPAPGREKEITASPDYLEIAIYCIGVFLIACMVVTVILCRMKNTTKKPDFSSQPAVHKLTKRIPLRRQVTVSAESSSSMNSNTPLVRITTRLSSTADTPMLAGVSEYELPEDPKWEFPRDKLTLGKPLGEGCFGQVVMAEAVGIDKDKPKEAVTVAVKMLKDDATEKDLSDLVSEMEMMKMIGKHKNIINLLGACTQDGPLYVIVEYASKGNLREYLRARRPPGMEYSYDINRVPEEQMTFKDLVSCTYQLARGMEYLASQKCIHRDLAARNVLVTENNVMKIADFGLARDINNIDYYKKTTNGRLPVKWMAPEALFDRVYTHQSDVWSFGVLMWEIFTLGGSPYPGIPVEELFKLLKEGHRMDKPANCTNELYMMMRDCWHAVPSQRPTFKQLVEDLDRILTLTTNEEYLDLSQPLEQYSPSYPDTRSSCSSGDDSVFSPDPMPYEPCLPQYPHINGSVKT
For the molecule `CC(=O)O/N=C1\C(=C2\C(=O)Nc3cc(Br)ccc32)Nc2ccccc21`, the residual activity came to 85.8%.

As for `O=C(O)/C=C/c1cc(Br)c(Br)c(Br)c1Br`, the residual activity turned out to be 99.5%.

Regarding `Cc1nc2cc3nc(-c4cccs4)cnc3cc2n1C`, the residual activity was 91.8%.

With `O=C1NC(=O)C(c2cn(CCCO)c3ncccc23)=C1c1cnccn1`, the residual activity stood at 103%.

The next test has as its target CAMK2G (human) (UniProt Q13555). The description is as above. The note with it: compound 0.5 µM; ATP 10 µM.
Turning to `CC(=O)O/N=C1\C(=C2\C(=O)Nc3cc(Br)ccc32)Nc2ccccc21`, the residual activity is 70.6%.

Turning to `O=C(O)/C=C/c1cc(Br)c(Br)c(Br)c1Br`, the residual activity came to 104%.

`Cc1nc2cc3nc(-c4cccs4)cnc3cc2n1C`: the residual activity came out at 101%.

As for `O=C1NC(=O)C(c2cn(CCCO)c3ncccc23)=C1c1cnccn1`, the residual activity worked out at 90.6%.

For another test, the target named is PRKG1 (human) (UniProt Q13976). The description is as above. The settings on record: compound 0.5 µM; ATP 10 µM.
For `CC(=O)O/N=C1\C(=C2\C(=O)Nc3cc(Br)ccc32)Nc2ccccc21`, the residual activity is 82.7% and 86.1%.

For the molecule `O=C(O)/C=C/c1cc(Br)c(Br)c(Br)c1Br`, the residual activity is 78.9% and 89%.

Regarding `Cc1nc2cc3nc(-c4cccs4)cnc3cc2n1C`, the residual activity was 98.5% and 99.7%.

Another test has as its target CSNK1G2 (human) (UniProt P78368). The description is as above. The note with it: compound 0.5 µM; ATP 10 µM.
Consider `CC(=O)O/N=C1\C(=C2\C(=O)Nc3cc(Br)ccc32)Nc2ccccc21`, for which the residual activity amounted to 89.7%.

Turning to `O=C(O)/C=C/c1cc(Br)c(Br)c(Br)c1Br`, the residual activity was determined as 90.1%.

`Cc1nc2cc3nc(-c4cccs4)cnc3cc2n1C`: the residual activity is 103%.

`O=C1NC(=O)C(c2cn(CCCO)c3ncccc23)=C1c1cnccn1`: the residual activity came out at 66%.

For the next test, the target named is CDK2 CCNA2 (human) (UniProt P24941+P20248). Described as above. The note with it: compound 0.5 µM; ATP 10 µM.
Turning to `CC(=O)O/N=C1\C(=C2\C(=O)Nc3cc(Br)ccc32)Nc2ccccc21`, the residual activity was found to be 22.3%.

With `O=C(O)/C=C/c1cc(Br)c(Br)c(Br)c1Br`, the residual activity stood at 85.6%.

In the case of `Cc1nc2cc3nc(-c4cccs4)cnc3cc2n1C`, the residual activity is 104%.

With `O=C1NC(=O)C(c2cn(CCCO)c3ncccc23)=C1c1cnccn1`, the residual activity was determined as 94.8%.

The target of another test is MAPK11 (human) (UniProt Q15759). The description is as above. The note with it: compound 0.5 µM; ATP 10 µM.
MAPK11 (human), sequence (Q15759 whole entry, looked up): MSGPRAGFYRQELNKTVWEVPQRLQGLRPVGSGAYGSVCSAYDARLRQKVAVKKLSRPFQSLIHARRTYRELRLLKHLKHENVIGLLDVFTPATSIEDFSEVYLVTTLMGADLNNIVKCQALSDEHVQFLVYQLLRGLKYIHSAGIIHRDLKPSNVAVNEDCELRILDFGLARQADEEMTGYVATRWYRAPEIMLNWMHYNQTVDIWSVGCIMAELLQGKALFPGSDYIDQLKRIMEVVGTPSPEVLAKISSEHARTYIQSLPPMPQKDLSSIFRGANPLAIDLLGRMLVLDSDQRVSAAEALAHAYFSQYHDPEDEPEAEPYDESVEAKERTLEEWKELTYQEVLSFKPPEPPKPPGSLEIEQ
For the molecule `CC(=O)O/N=C1\C(=C2\C(=O)Nc3cc(Br)ccc32)Nc2ccccc21`, the residual activity amounted to 83.4%.

`O=C(O)/C=C/c1cc(Br)c(Br)c(Br)c1Br`: the residual activity was 92.7%.

`Cc1nc2cc3nc(-c4cccs4)cnc3cc2n1C`: the residual activity was determined as 101%.

Consider `O=C1NC(=O)C(c2cn(CCCO)c3ncccc23)=C1c1cnccn1`, for which the residual activity turned out to be 105%.

In another test the target is MELK (human) (UniProt Q14680). The description is as above. The note with it: compound 0.5 µM; ATP 10 µM.
MELK (human), sequence (Q14680 whole entry, looked up): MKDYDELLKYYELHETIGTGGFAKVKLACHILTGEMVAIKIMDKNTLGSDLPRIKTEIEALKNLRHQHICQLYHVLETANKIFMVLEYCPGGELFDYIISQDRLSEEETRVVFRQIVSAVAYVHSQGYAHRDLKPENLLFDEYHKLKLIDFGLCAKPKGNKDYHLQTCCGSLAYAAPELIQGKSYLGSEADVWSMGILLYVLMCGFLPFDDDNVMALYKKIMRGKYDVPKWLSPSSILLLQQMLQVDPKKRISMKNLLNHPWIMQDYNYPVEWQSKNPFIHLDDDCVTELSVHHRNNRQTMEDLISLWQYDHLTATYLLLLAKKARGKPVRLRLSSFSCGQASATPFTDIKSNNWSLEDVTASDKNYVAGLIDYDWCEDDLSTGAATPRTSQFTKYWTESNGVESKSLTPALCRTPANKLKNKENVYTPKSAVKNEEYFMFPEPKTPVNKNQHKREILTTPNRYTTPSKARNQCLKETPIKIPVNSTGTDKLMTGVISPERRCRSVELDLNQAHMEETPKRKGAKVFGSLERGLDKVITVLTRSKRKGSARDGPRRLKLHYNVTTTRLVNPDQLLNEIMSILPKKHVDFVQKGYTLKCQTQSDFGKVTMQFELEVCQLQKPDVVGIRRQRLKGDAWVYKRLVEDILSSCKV
Regarding `CC(=O)O/N=C1\C(=C2\C(=O)Nc3cc(Br)ccc32)Nc2ccccc21`, the residual activity amounted to 93.9%.

For the molecule `O=C(O)/C=C/c1cc(Br)c(Br)c(Br)c1Br`, the residual activity was 91%.

In the case of `Cc1nc2cc3nc(-c4cccs4)cnc3cc2n1C`, the residual activity came out at 95.6%.

Regarding `O=C1NC(=O)C(c2cn(CCCO)c3ncccc23)=C1c1cnccn1`, the residual activity worked out at 101%.

The target of the next test is SYK (human) (UniProt P43405). The description is as above. The settings on record: compound 0.5 µM; ATP 10 µM.
Take `CC(=O)O/N=C1\C(=C2\C(=O)Nc3cc(Br)ccc32)Nc2ccccc21`: the residual activity turned out to be 88.3%.

Consider `O=C(O)/C=C/c1cc(Br)c(Br)c(Br)c1Br`, for which the residual activity came out at 102%.

As to `Cc1nc2cc3nc(-c4cccs4)cnc3cc2n1C`, the residual activity was determined as 94.3%.

As for `O=C1NC(=O)C(c2cn(CCCO)c3ncccc23)=C1c1cnccn1`, the residual activity worked out at 60%.

Another test deals with MAP3K2 (human) (UniProt Q9Y2U5). The description is as above. The settings on record: compound 0.5 µM; ATP 10 µM.
With `CC(=O)O/N=C1\C(=C2\C(=O)Nc3cc(Br)ccc32)Nc2ccccc21`, the residual activity is 93.1%.

For `O=C(O)/C=C/c1cc(Br)c(Br)c(Br)c1Br`, the residual activity was found to be 102%.

For the molecule `Cc1nc2cc3nc(-c4cccs4)cnc3cc2n1C`, the residual activity amounted to 90.2%.

Take `O=C1NC(=O)C(c2cn(CCCO)c3ncccc23)=C1c1cnccn1`: the residual activity was determined as 96.9%.

Another test addresses DMPK (human) (UniProt Q09013). Described as above. The settings on record: compound 0.5 µM; ATP 10 µM.
Take `CC(=O)O/N=C1\C(=C2\C(=O)Nc3cc(Br)ccc32)Nc2ccccc21`: the residual activity was 95.4%.

For the molecule `O=C(O)/C=C/c1cc(Br)c(Br)c(Br)c1Br`, the residual activity turned out to be 103%.

Consider `Cc1nc2cc3nc(-c4cccs4)cnc3cc2n1C`, for which the residual activity turned out to be 100%.

With `O=C1NC(=O)C(c2cn(CCCO)c3ncccc23)=C1c1cnccn1`, the residual activity was 99.6%.

The next test deals with PDGFRA (human) (UniProt P16234). Described as above. The settings on record: compound 0.5 µM; ATP 10 µM.
On to `CC(=O)O/N=C1\C(=C2\C(=O)Nc3cc(Br)ccc32)Nc2ccccc21`, for which the residual activity amounted to 82.9%.

In the case of `O=C(O)/C=C/c1cc(Br)c(Br)c(Br)c1Br`, the residual activity stood at 105%.

Consider `Cc1nc2cc3nc(-c4cccs4)cnc3cc2n1C`, for which the residual activity was 23.8%.

With `O=C1NC(=O)C(c2cn(CCCO)c3ncccc23)=C1c1cnccn1`, the residual activity is 113%.

For another test, the target named is FER (human) (UniProt P16591). The description is as above. The settings on record: compound 0.5 µM; ATP 10 µM.
FER (human), sequence (P16591 whole entry, looked up): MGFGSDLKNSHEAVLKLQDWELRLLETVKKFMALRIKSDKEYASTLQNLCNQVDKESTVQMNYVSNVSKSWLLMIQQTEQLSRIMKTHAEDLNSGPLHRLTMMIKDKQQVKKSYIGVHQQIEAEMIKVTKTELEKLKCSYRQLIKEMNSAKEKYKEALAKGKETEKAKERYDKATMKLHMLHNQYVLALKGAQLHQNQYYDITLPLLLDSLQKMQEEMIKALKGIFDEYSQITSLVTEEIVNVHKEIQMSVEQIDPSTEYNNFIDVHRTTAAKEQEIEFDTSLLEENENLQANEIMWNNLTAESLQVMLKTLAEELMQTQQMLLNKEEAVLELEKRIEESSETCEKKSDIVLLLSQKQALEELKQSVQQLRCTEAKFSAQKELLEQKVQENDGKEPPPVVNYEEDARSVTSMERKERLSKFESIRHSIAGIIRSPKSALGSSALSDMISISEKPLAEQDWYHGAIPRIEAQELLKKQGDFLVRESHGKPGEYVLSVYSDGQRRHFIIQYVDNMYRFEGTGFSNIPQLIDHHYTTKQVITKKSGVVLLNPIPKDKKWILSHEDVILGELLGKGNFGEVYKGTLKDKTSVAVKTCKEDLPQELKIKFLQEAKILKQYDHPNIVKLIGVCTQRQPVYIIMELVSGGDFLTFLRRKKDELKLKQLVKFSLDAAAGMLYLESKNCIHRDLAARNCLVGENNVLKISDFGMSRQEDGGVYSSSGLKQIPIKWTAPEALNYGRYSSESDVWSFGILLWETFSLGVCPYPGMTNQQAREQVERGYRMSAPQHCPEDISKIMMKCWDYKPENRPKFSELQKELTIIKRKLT
As for `CC(=O)O/N=C1\C(=C2\C(=O)Nc3cc(Br)ccc32)Nc2ccccc21`, the residual activity came out at 86.4%.

Consider `O=C(O)/C=C/c1cc(Br)c(Br)c(Br)c1Br`, for which the residual activity worked out at 96.6%.

Turning to `Cc1nc2cc3nc(-c4cccs4)cnc3cc2n1C`, the residual activity came out at 104%.

Regarding `O=C1NC(=O)C(c2cn(CCCO)c3ncccc23)=C1c1cnccn1`, the residual activity was 99.2%.

In another test the target is PRKCH (human) (UniProt P24723). Described as above. The settings on record: compound 0.5 µM; ATP 10 µM.
Consider `CC(=O)O/N=C1\C(=C2\C(=O)Nc3cc(Br)ccc32)Nc2ccccc21`, for which the residual activity amounted to 95.4%.

For the molecule `O=C(O)/C=C/c1cc(Br)c(Br)c(Br)c1Br`, the residual activity was 83.7%.

As for `Cc1nc2cc3nc(-c4cccs4)cnc3cc2n1C`, the residual activity was 96.8%.

For the molecule `O=C1NC(=O)C(c2cn(CCCO)c3ncccc23)=C1c1cnccn1`, the residual activity was 81.6%.

For a further test, the target named is PRKCB2 (human) (UniProt P05771). The description is as above. The note with it: compound 0.5 µM; ATP 10 µM.
PRKCB2 (human), sequence (P05771 whole entry, looked up): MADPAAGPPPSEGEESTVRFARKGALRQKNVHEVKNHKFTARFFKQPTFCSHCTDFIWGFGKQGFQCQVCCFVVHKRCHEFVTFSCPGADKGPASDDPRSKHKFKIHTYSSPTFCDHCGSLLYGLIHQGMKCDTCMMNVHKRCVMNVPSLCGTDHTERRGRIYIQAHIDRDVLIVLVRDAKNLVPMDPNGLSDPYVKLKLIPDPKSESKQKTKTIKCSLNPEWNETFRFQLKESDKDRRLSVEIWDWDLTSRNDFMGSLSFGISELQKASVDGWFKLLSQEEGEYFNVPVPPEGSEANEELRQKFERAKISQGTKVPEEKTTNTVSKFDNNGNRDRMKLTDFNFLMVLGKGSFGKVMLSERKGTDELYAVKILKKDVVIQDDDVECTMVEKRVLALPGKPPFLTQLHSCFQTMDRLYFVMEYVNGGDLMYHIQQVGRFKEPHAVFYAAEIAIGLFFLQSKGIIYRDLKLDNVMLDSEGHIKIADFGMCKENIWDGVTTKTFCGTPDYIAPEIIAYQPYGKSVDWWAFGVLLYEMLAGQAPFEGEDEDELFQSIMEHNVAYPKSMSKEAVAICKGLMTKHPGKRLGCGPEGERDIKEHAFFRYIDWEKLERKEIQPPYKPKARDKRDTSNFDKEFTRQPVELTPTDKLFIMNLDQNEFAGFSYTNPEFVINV
For `CC(=O)O/N=C1\C(=C2\C(=O)Nc3cc(Br)ccc32)Nc2ccccc21`, the residual activity was determined as 101%.

For `O=C(O)/C=C/c1cc(Br)c(Br)c(Br)c1Br`, the residual activity turned out to be 84.7%.

Take `Cc1nc2cc3nc(-c4cccs4)cnc3cc2n1C`: the residual activity was found to be 121%.

The target in a further test is RPS6KA3 KD1 KD2 (human) (UniProt P51812). The description is as above. The settings on record: compound 0.5 µM; ATP 10 µM.
RPS6KA3 KD1 KD2 (human), sequence (P51812 whole entry, looked up): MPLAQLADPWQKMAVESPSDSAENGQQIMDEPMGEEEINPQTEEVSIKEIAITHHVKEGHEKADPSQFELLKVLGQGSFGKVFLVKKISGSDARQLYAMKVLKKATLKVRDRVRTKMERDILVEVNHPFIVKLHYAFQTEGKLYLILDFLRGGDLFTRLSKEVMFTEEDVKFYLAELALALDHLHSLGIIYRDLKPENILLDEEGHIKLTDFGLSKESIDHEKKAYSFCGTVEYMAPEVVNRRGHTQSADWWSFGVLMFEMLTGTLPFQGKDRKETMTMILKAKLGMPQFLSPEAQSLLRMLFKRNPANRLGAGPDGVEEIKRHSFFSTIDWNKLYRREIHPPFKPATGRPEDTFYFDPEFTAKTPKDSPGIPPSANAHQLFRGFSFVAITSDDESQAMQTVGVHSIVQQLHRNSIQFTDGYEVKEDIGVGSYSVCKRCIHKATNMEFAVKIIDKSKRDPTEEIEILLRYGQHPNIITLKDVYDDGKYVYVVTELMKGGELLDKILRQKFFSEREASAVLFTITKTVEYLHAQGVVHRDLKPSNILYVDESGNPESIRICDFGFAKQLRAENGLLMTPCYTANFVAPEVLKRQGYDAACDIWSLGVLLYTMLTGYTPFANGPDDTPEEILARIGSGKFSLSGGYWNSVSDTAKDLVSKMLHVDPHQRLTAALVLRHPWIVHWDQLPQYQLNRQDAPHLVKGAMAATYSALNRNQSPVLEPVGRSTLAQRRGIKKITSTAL
As to `CC(=O)O/N=C1\C(=C2\C(=O)Nc3cc(Br)ccc32)Nc2ccccc21`, the residual activity was found to be 91.9%.

`O=C(O)/C=C/c1cc(Br)c(Br)c(Br)c1Br`: the residual activity was found to be 41.2%.

Turning to `Cc1nc2cc3nc(-c4cccs4)cnc3cc2n1C`, the residual activity stood at 96.3%.

Take `O=C1NC(=O)C(c2cn(CCCO)c3ncccc23)=C1c1cnccn1`: the residual activity turned out to be 91.3%.

In another test the target is PLK2 (human) (UniProt Q9NYY3). The description is as above. The settings on record: compound 0.5 µM; ATP 10 µM.
Regarding `CC(=O)O/N=C1\C(=C2\C(=O)Nc3cc(Br)ccc32)Nc2ccccc21`, the residual activity is 100%.

Consider `O=C(O)/C=C/c1cc(Br)c(Br)c(Br)c1Br`, for which the residual activity is 51.5%.

Turning to `Cc1nc2cc3nc(-c4cccs4)cnc3cc2n1C`, the residual activity turned out to be 99.4%.

For `O=C1NC(=O)C(c2cn(CCCO)c3ncccc23)=C1c1cnccn1`, the residual activity turned out to be 104%.
